Data: patent US7671085B2, “Non-steroidal farnesoid X receptor modulators and methods for the use thereof” (The Salk Institute for Biological Studies, priority 2002, dated 2010)
Entries after “also recorded” stand apart in the source; their conditions may differ.

Legend:
[1] = system: IBABP mRNA in HT29-FXRFL cells; test: Northern blot of IBABP mRNA in HT29 stable cell lines; format: cell-based, Human; conditions: for concentration for maximal induction of IBABP mRNA: overnight treatment
Procedure: (§1) HepG2 or HT29-derived cell lines were typically cultured in medium containing superstripped FBS for 24 hr before the addition of a ligand or DMSO (vehicle) for an additional 24-48 hr. Total RNA was isolated using TRIzol reagent and was resolved (10 μg/lane) on a 1% agarose, 2.2 M formaldehyde gel, transferred to a nylon membrane (Hybond N^+; Amersham Biosciences, Inc.), and cross-linked to the membrane with UV light.
(§2) cDNA probes were radiolabeled with [α-^32P]dCTP using the highprime labeling kit (Amersham Biosciences, Inc.). Membranes were hybridized using the QuikHyb hybridization solution (Stratagene, La Jolla, Calif.) according to the manufacturer's protocol. Blots were normalized for variations of RNA loading by hybridization to a control probe, either, 18 S ribosomal cDNA, or the ribosomal protein 36B4. The RNA levels were quantitated using a PhosphorImager (ImageQuant software; Molecular Dynamics, Inc., Sunnyvale, Calif.) in addition to being exposed to X-ray film.
Human colon cells HT29 (FXR null until differentiated) were infected with retroviral vectors that expressed either FXR constructs and the puromycin-resistant gene or the puromycin-resistant gene alone. Puromycin resistant cells were isolated and pooled cell populations were propagated that harbored either the vector alone (HT29-BABE), overexpressed FXR full length (HT29-FXRFL), a non-functional FXR truncated at the AF2 region (HT29-FXR-AF2), or a constitutively active FXR that has the VP16 activation domain fused N-terminal of the protein (HT29-VP16-FXR). Confirmation of the successful establishment of the different stable cell lines was established via northern blot analysis of FXR message levels in the cells.
These observations verify the usefulness of this colon cell model system for studying the induction of FXR target genes.
The ability of the novel compounds identified herein to induce IBABP gene expression in this cell system was also examined. Total RNA from HT29 stable cells treated overnight with fexaramine, fexarine and fexarene was probed for IBABP gene expression.

[2] = system: FXR (IBABP, PLTP and MRP-2 promoters); test: transient transfection cell-based assay with natural promoters of FXR targets (IBABP, PLTP, MRP-2)
Source text: For this study, the following gene promoters were used: intestinal bile acid binding protein (IBABP; see, for example, Grober et al. (1999). Identification of a bile acid-responsive element in the human ileal bile acid-binding protein gene. Involvement of the farnesoid X receptor/9-cis-retinoic acid receptor heterodimer. J Biol Chem. 274(42), 29749-54), phospholipid transfer protein (PLTP) (Urizar et al (2000). The farnesoid X-activated receptor mediates bile acid activation of phospholipid transfer protein gene expression. J Biol Chem. 275(50), 39313-7) and multidrug resistance related protein 2 (MRP-2) (Kast et al. (2002), supra), which are all well characterized targets of FXR. The natural promoters of both the IBABP and PLTP genes contain one copy of an inverted repeat with a one base spacing (IR-1) while MRP-2 contains an ER-8 element. […] The most robust activation (28-fold) was seen on the IBABP promoter. Less robust (2-3 fold) but specific activation was observed on the PLTP and MRP-2 promoters.

[3] = biological target: T1, mouse FXR and human RXR (Mus musculus, UniProt Q60641); test: CV-1 transient transfection reporter gene assay, TK minimal promoter with ECRE or ER-8 FXRE; format: cell-based; conditions: CV-1 cells
T1 construct: expressed in transfected cells; host or cells: CV-1 cells
T1 sequence (Q60641 1-488): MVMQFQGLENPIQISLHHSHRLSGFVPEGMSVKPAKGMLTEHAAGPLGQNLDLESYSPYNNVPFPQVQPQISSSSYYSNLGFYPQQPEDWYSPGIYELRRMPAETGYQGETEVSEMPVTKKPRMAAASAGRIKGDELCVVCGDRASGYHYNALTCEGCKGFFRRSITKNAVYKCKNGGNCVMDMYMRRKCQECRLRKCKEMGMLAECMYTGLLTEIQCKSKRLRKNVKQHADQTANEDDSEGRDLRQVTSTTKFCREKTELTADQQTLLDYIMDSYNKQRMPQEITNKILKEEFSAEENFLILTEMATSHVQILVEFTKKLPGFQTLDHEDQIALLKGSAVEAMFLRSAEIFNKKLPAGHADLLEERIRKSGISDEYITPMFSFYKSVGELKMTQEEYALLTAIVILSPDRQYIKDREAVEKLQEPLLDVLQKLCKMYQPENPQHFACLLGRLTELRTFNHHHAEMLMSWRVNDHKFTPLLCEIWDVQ
T1 sequence (P19793 1-462 partner): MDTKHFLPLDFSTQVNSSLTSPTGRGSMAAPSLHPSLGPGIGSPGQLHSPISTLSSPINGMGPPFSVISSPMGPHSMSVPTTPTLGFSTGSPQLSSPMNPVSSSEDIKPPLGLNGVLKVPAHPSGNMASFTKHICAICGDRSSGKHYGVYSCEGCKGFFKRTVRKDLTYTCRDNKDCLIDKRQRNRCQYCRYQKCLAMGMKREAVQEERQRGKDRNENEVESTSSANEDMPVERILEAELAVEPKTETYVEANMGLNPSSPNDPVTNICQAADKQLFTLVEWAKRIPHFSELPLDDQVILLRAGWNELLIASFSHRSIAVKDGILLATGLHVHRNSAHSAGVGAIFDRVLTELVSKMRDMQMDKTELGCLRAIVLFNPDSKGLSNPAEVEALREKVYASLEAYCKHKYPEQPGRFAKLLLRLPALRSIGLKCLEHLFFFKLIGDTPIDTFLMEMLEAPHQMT
Procedure: The ability of these compounds to activate the receptor in a number of different cell-based reporter gene assays was then determined. […] CV-1 cells were transiently transfected with an expression plasmid for mouse FXR and human RXR with a thymidine kinase (TK) minimal promoter reporter vector containing either no copies or six copies of the ecdysone response element (ECRE), a well-characterized FXR response element (FXRE). In addition, two copies of the recently identified FXRE everted repeat separated by 8 nucleotides (ER-8) was also studied (see, for example, Laffitte et al. (2000). Identification of the DNA binding specificity and potential target genes for the farnesoid X-activated receptor. J Biol Chem. 275(14), 10638-47; Kast et al. (2002). Regulation of multidrug resistance-associated protein 2 (ABCC2) by the nuclear receptors pregnane X receptor, farnesoid X-activated receptor, and constitutive androstane receptor. J Biol Chem. 277(4), 2908-15).

[4] = system: FXR target genes SHP, MRP-2, BSEP and PLTP; test: Northern blot of FXR target genes in HEPG2-FXR cells; format: cell-based; conditions: SHP, MRP-2, BSEP, PLTP
Procedure: as §1, §2
Total RNA was isolated and the expression of the FXR target genes SHP, MRP-2, BSEP and PLTP was measured by Northern blot analysis. […]

[5] = biological target: T2, SXR (Homo sapiens, UniProt O75469); test: nuclear receptor panel: SXR activation; format: cell-based
T2 sequence (O75469 1-434): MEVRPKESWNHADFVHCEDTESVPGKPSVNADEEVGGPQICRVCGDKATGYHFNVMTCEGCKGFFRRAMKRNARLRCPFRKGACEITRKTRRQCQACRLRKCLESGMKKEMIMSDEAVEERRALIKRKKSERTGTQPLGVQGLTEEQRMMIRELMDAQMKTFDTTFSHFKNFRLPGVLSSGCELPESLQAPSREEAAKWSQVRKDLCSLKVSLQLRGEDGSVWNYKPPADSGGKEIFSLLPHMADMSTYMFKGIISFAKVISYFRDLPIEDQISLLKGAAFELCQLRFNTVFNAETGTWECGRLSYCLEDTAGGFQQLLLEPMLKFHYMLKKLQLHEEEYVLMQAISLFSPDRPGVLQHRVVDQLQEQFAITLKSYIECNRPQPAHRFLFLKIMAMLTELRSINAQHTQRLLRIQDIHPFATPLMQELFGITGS

[6] = biological target: T3, FXR (Homo sapiens, UniProt Q96RI1); test: cell-based FXR transcription assay, FXR responsive promoter linked to luciferase reporter; conditions: for RE^a: cell-based FXR reporter assay, footnote a not given; for FXR activation, in words: cell-based reporter assay, SAR discussion
T3 construct: using a full length FXR on a natural response element; expressed in transfected cells
T3 sequence (Q96RI1 1-486): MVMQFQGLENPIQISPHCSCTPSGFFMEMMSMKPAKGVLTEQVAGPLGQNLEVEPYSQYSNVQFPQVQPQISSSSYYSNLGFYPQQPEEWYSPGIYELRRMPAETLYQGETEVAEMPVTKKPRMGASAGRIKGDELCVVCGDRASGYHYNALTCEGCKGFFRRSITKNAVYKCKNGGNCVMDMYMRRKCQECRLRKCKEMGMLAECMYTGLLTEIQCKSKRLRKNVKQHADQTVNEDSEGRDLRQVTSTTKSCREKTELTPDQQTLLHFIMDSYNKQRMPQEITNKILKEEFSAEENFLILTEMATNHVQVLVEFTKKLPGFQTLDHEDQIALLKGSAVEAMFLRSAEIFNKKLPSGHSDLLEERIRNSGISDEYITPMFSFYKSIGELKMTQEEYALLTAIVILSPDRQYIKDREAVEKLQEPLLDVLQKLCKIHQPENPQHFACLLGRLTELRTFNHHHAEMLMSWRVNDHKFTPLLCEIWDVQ
How it was run: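 Cells co-transfected with full-length FXR and a luciferase reporter driven by a natural response element on a minimal promoter. Compound exposure ≈10 μM for 18 h before washing and luciferase read-out, in 384-well format, with CDCA as reference activator. EC50 derived from transcriptional activity.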

[7] = HT29-BABE or HT29-FXR-AF2 cell lines
[8] = HT29-VP16-FXR cells (constitutive expression)

| Structure (SMILES) | RE^a [6] | induction of IBABP mRNA, in words [1, 7] | induction of IBABP mRNA, in words ([1]; HT29-FXRFL cells) | concentration for maximal induction of IBABP mRNA ([1]; HT29-FXRFL cells) [µM] | induction of IBABP mRNA, in words [1, 8] | FXR activation, in words [6] | also measured |
| --- | --- | --- | --- | --- | --- | --- | --- |
| C[C@H](CCC(=O)O)[C@H]1CC[C@H]2[C@@H]3[C@H](O)C[C@@H]4C[C@H](O)CC[C@]4(C)[C@H]3CC[C@]12C [CDCA, chenodeoxycholic acid, reference compound] | – | No induction of IBABP mRNA levels | robust concentration dependent induction of IBABP mRNA | 100 | super-induced | – | – |
| CC(C)c1onc(-c2c(Cl)cccc2Cl)c1COc1ccc(/C=C/c2cccc(C(=O)O)c2)c(Cl)c1 [GW4064, reference compound] | – | No induction of IBABP mRNA levels | robust concentration dependent induction of IBABP mRNA | 1 | super-induced | – | concentration of maximum efficacy [2]: 1 µM; concentration at which maximal activity is achieved ([3]; ECRE and ER-8 reporters): 1 µM; activity on the minimal TK promoter ([3]; no FXRE copies): less than 2 fold; activation of ECRE FXRE reporter ([3]; six copies of ECRE, TK minimal promoter): 100 fold; activation of ER-8 FXRE reporter ([3]; two copies of ER-8, TK minimal promoter): 4 fold; induction of FXR target genes, in words [4]: slightly better induction of the FXR target genes PLTP and SHP |
| COC(=O)/C=C/c1cccc(N(Cc2ccc3c(c2OC)OC(C)(C)C=C3)C(=O)C2CC2)c1 [Compound 29] | – | – | – | – | – | substantially better activator of FXR than compound 26; also recorded: capable of activating FXR to a significant extent | – |

More lines, main results first:

| RE^a [6] | Structure (SMILES) | induction of IBABP mRNA, in words [1, 7] | induction of IBABP mRNA, in words ([1]; HT29-FXRFL cells) | concentration for maximal induction of IBABP mRNA ([1]; HT29-FXRFL cells) [µM] | induction of IBABP mRNA, in words [1, 8] | FXR activation, in words [6] | also measured |
| --- | --- | --- | --- | --- | --- | --- | --- |
| 0.50 | COC(=O)/C=C/c1cccc(N(Cc2ccc3c(c2OC)OC(C)(C)C2C3C2(Cl)Cl)C(=O)C2CCCCC2)c1 (centres unmarked) [Compound 149] | – | – | – | – | – | SXR activation, in words [5]: potently activated SXR |
| 0.12 | COC(=O)/C=C/c1cccc(N(Cc2ccc(/C=C/c3c(Cl)cccc3Cl)cc2)C(=O)C2CCCCC2)c1 [Compound 177] | – | – | – | – | excellent activity | – |
| 0.11 | COC(=O)C=Cc1cccc(N(Cc2cccc(Br)c2)C(=O)C2CCCCC2)c1 [Compound 113] | – | – | – | – | – | – |
